# Results as given in article PMC5268466, “Monofluorophosphate Blocks Internal Polysaccharide Synthesis in Streptococcus mutans” (PLoS ONE, 2017).
# Molecular target: T1, S. mutans ADP-Glc PPase (GlgC/GlgD) (Streptococcus mutans, UniProt M9TIK1)
# T1 sequence (M9TIK1 1-381): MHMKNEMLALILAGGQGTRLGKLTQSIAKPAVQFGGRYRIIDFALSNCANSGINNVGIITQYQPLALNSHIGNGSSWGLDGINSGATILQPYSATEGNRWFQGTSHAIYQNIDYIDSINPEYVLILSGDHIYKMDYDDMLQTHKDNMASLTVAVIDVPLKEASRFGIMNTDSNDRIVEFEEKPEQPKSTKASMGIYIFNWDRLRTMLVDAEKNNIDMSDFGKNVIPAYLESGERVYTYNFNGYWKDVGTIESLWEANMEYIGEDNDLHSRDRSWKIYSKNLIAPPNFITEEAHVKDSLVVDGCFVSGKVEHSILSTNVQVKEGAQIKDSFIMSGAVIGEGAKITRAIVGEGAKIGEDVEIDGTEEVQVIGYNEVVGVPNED
# T1 sequence (M9TG57 1-377 partner): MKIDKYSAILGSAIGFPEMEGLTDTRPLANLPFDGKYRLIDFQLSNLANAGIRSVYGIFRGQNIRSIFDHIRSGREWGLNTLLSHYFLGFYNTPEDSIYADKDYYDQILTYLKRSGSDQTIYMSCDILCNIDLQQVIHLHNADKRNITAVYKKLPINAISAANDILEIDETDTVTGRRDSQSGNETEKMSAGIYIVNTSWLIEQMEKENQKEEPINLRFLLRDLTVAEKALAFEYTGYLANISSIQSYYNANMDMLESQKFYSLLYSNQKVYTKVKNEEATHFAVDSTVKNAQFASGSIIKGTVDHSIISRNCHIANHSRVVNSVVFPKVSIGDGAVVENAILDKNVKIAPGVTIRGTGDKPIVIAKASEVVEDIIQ
# Conditions: 2500 µM, pH 8.0, 37 C, allosteric
compound,measurement,value
"O=P(O)(O)O [Pi, orthophosphate]","No Fru-1,6-bisP / Activity (% remaining activity)",15 ± 2%
